The numbers were not newly measured in patent US12157728B2, “Targeting of endoplasmic reticulum dysfunction and protein folding stress to treat neurological conditions” (ALS Therapy Development Institute, priority 2018, dated 2024), which cites them from elsewhere.

The conditions of data set [1]: in vivo.
Data set [2] concerns GADD34/protein phosphatase 1 (PP1).
In data set [3] the test system is ER stress-mediated apoptosis. Conditions: induced by tunicamycin.
For data set [4], the system named is β-amyloid-induced neuronal death.
Experiment in data set [5]: not given
This is another data set of the same source.

The structures appear in SMILES notation. Structures can show the parent of a compound that is named as a salt.

Regarding `O=C(/C=C/c1ccccc1)NC(NC(=S)Nc1cccc2cccnc12)C(Cl)(Cl)Cl` (centres unmarked) [Salubrinal, N-(2,2,2-trichloro-1-(3-(quinolin-8-yl)thioureido)ethyl)cinnamamide], the “solubility in aqueous solutions” value is on record as “low solubility”. Moreover, the clearance entry in data set [1] is given as “rapid clearance”. Further, in data set [2], the “eIF2α dephosphorylation via GADD34/PP1 complex” value is reported as “prevent eIF2α dephosphorylation”. In data set [3], the ER stress-mediated apoptosis entry is given as “inhibit ER stress-mediated apoptosis”. The “β-amyloid-induced neuronal death and microglial activation” value in data set [4] is “attenuate β-amyloid-induced neuronal death and microglial activation”. Besides, in the data set on PC12 cells, the “cell death induced by α-synuclein” value is on record as “protected PC12 cells from cell death”. Also, in the data set with SOD1 mice, the motor neuron degeneration entry is “slowed motor neuron degeneration” and the survival entry is “extended survival”.
With `CCCCCCCCc1ccc(CCC(N)(CO)CO)cc1` [Fingolimod hydrochloride], in data set [5] (0.9% saline and aqueous buffers at or below pH 2.0), the “solubility in 0.9% saline and aqueous buffers” value is “soluble”. Also, the “solubility in aqueous buffers” value in data set [5] (aqueous buffers at or above pH 3.0) is given as “very slightly soluble or practically insoluble”. Moreover, in data set [5] (water), the solubility in water was greater than 10%.
